PMC9571063 (Molecules, 2022)
Where two headings read alike, the source gives them in different places.

Tests used:
ALK(C1156Y) = molecular target: T1, ALK(C1156Y) (Homo sapiens, UniProt Q9UM73, C1156Y); assay: KINOMEscan; assay type: binding; details: read-out: Percent Control
T1 construct: purchased Eurofins DiscoverX KINOMEscan (scanMAX 468)

BRK = molecular target: T2, BRK (Homo sapiens, UniProt Q13882); assay: KINOMEscan; assay type: binding; details: read-out: Percent Control
T2 construct: purchased Eurofins DiscoverX KINOMEscan (scanMAX 468)

CSF1R-autoinhibited = molecular target: T3, CSF1R-autoinhibited (Homo sapiens, UniProt P07333); assay: KINOMEscan; assay type: binding; details: read-out: Percent Control
T3 construct: purchased Eurofins DiscoverX KINOMEscan (scanMAX 468)

PCTK3 = molecular target: T4, PCTK3 (Homo sapiens, UniProt Q07002); assay: KINOMEscan; assay type: binding; details: read-out: Percent Control
T4 construct: purchased Eurofins DiscoverX KINOMEscan (scanMAX 468)

MLK1 = molecular target: T5, MLK1 (Homo sapiens, UniProt P80192); assay: KINOMEscan; assay type: binding; details: read-out: Percent Control
T5 construct: purchased Eurofins DiscoverX KINOMEscan (scanMAX 468)

PKAC-beta = molecular target: T6, PKAC-beta (Homo sapiens, UniProt P22694); assay: KINOMEscan; assay type: binding; details: read-out: Percent Control
T6 construct: purchased Eurofins DiscoverX KINOMEscan (scanMAX 468)

TRKA = molecular target: T7, TRKA (Homo sapiens, UniProt P04629); assay: KINOMEscan; assay type: binding; details: read-out: Percent Control
T7 construct: purchased Eurofins DiscoverX KINOMEscan (scanMAX 468)

KIT(V559D,V654A) = molecular target: T8, KIT(V559D,V654A) (Homo sapiens, UniProt P10721, V559D/V654A); assay: KINOMEscan; assay type: binding; details: read-out: Percent Control
T8 construct: purchased Eurofins DiscoverX KINOMEscan (scanMAX 468)

FLT3(N841I) = molecular target: T9, FLT3(N841I) (Homo sapiens, UniProt P36888, N841I); assay: KINOMEscan; assay type: binding; details: read-out: Percent Control
T9 construct: purchased Eurofins DiscoverX KINOMEscan (scanMAX 468)

FLT4 = molecular target: T10, FLT4 (Homo sapiens, UniProt P35916); assay: KINOMEscan; assay type: binding; details: read-out: Percent Control
T10 construct: purchased Eurofins DiscoverX KINOMEscan (scanMAX 468)

TESK1 = molecular target: T11, TESK1 (Homo sapiens, UniProt Q15569); assay: KINOMEscan; assay type: binding; details: read-out: Percent Control
T11 construct: purchased Eurofins DiscoverX KINOMEscan (scanMAX 468)

Human skin fibroblasts = test system: Human skin fibroblasts; design: method as in ref 14 (a number printed in a supplementary file, which may have a reference list of its own: not looked up in the article's list); details: DB18[a], footnote not given; read-out: Cytotoxic studies IC50 Fibroblasts; cited from earlier work
[1] = molecular target: T12, RSK3(Kin.Dom.1-N-terminal) (Homo sapiens, UniProt Q15349); assay: KINOMEscan; assay type: binding; details: read-out: Percent Control
T12 construct: RSK3(Kin.Dom.1-N-terminal); purchased Eurofins DiscoverX KINOMEscan (scanMAX 468)

EIF2AK1 = molecular target: T13, EIF2AK1 (Homo sapiens, UniProt Q9BQI3); assay: KINOMEscan; assay type: binding; details: read-out: Percent Control
T13 construct: purchased Eurofins DiscoverX KINOMEscan (scanMAX 468)

TGFBR1 = molecular target: T14, TGFBR1 (Homo sapiens, UniProt P36897); assay: KINOMEscan; assay type: binding; details: read-out: Percent Control
T14 construct: purchased Eurofins DiscoverX KINOMEscan (scanMAX 468)

FGFR3(G697C) = molecular target: T15, FGFR3(G697C) (Homo sapiens, UniProt P22607, G697C); assay: KINOMEscan; assay type: binding; details: read-out: Percent Control
T15 construct: purchased Eurofins DiscoverX KINOMEscan (scanMAX 468)

Hs_CDK9/CyclinT = molecular target: T16, Hs_CDK9/CyclinT (Homo sapiens, UniProt P50750); design: method as in ref 13 (a number printed in a supplementary file, which may have a reference list of its own: not looked up in the article's list); details: DB18, cited from earlier work
T16 construct: host or cells: Sf9 insect cells (baculovirus)

WNK1 = molecular target: T17, WNK1 (Homo sapiens, UniProt Q9H4A3); assay: KINOMEscan; assay type: binding; details: read-out: Percent Control
T17 construct: purchased Eurofins DiscoverX KINOMEscan (scanMAX 468)

BMPR1B = molecular target: T18, BMPR1B (Homo sapiens, UniProt O00238); assay: KINOMEscan; assay type: binding; details: read-out: Percent Control
T18 construct: purchased Eurofins DiscoverX KINOMEscan (scanMAX 468)

VRK2 = molecular target: T19, VRK2 (Homo sapiens, UniProt Q86Y07); assay: KINOMEscan; assay type: binding; details: read-out: Percent Control
T19 construct: purchased Eurofins DiscoverX KINOMEscan (scanMAX 468)

[2] = molecular target: T20, ABL1(H396P)-nonphosphorylated (Homo sapiens, UniProt P00519, H396P); assay: KINOMEscan; assay type: binding; details: read-out: Percent Control
T20 construct: purchased Eurofins DiscoverX KINOMEscan (scanMAX 468)

TGFBR2 = molecular target: T21, TGFBR2 (Homo sapiens, UniProt P37173); assay: KINOMEscan; assay type: binding; details: read-out: Percent Control
T21 construct: purchased Eurofins DiscoverX KINOMEscan (scanMAX 468)

AKT3 = molecular target: T22, AKT3 (Homo sapiens, UniProt Q9Y243); assay: KINOMEscan; assay type: binding; details: read-out: Percent Control
T22 construct: purchased Eurofins DiscoverX KINOMEscan (scanMAX 468)

ERK2 = molecular target: T23, ERK2 (Homo sapiens, UniProt P28482); assay: KINOMEscan; assay type: binding; details: read-out: Percent Control
T23 construct: purchased Eurofins DiscoverX KINOMEscan (scanMAX 468)

ACVR1B = molecular target: T24, ACVR1B (Homo sapiens, UniProt P36896); assay: KINOMEscan; assay type: binding; details: read-out: Percent Control
T24 construct: purchased Eurofins DiscoverX KINOMEscan (scanMAX 468)

TRPM6 = molecular target: T25, TRPM6 (Homo sapiens, UniProt Q9BX84); assay: KINOMEscan; assay type: binding; details: read-out: Percent Control
T25 construct: purchased Eurofins DiscoverX KINOMEscan (scanMAX 468)

PDGFRB = molecular target: T26, PDGFRB (Homo sapiens, UniProt P09619); assay: KINOMEscan; assay type: binding; details: read-out: Percent Control
T26 construct: purchased Eurofins DiscoverX KINOMEscan (scanMAX 468)

LYN = molecular target: T27, LYN (Homo sapiens, UniProt P07948); assay: KINOMEscan; assay type: binding; details: read-out: Percent Control
T27 construct: purchased Eurofins DiscoverX KINOMEscan (scanMAX 468)

NEK5 = molecular target: T28, NEK5 (Homo sapiens, UniProt Q6P3R8); assay: KINOMEscan; assay type: binding; details: read-out: Percent Control
T28 construct: purchased Eurofins DiscoverX KINOMEscan (scanMAX 468)

CDK11 = molecular target: T29, CDK11 (Homo sapiens, UniProt Q9BWU1); assay: KINOMEscan; assay type: binding; details: read-out: Percent Control
T29 construct: purchased Eurofins DiscoverX KINOMEscan (scanMAX 468)

CSK = molecular target: T30, CSK (Homo sapiens, UniProt P41240); assay: KINOMEscan; assay type: binding; details: read-out: Percent Control
T30 construct: purchased Eurofins DiscoverX KINOMEscan (scanMAX 468)

MUSK = molecular target: T31, MUSK (Homo sapiens, UniProt O15146); assay: KINOMEscan; assay type: binding; details: read-out: Percent Control
T31 construct: purchased Eurofins DiscoverX KINOMEscan (scanMAX 468)

SYK = molecular target: T32, SYK (Homo sapiens, UniProt P43405); assay: KINOMEscan; assay type: binding; details: read-out: Percent Control
T32 construct: purchased Eurofins DiscoverX KINOMEscan (scanMAX 468)

PIP5K2B = molecular target: T33, PIP5K2B (Homo sapiens, UniProt P78356); assay: KINOMEscan; assay type: binding; details: read-out: Percent Control
T33 construct: purchased Eurofins DiscoverX KINOMEscan (scanMAX 468)

INSRR = molecular target: T34, INSRR (Homo sapiens, UniProt P14616); assay: KINOMEscan; assay type: binding; details: read-out: Percent Control
T34 construct: purchased Eurofins DiscoverX KINOMEscan (scanMAX 468)

BLK = molecular target: T35, BLK (Homo sapiens, UniProt P51451); assay: KINOMEscan; assay type: binding; details: read-out: Percent Control
T35 construct: purchased Eurofins DiscoverX KINOMEscan (scanMAX 468)

PIK4CB = molecular target: T36, PIK4CB (Homo sapiens, UniProt Q9UBF8); assay: KINOMEscan; assay type: binding; details: read-out: Percent Control
T36 construct: purchased Eurofins DiscoverX KINOMEscan (scanMAX 468)

MET = molecular target: T37, MET (Homo sapiens, UniProt P08581); assay: KINOMEscan; assay type: binding; details: read-out: Percent Control
T37 construct: purchased Eurofins DiscoverX KINOMEscan (scanMAX 468)

EGFR(L858R,T790M) = molecular target: T38, EGFR(L858R,T790M) (Homo sapiens, UniProt P00533, L858R/T790M); assay: KINOMEscan; assay type: binding; details: read-out: Percent Control
T38 construct: purchased Eurofins DiscoverX KINOMEscan (scanMAX 468)

CHEK2 = molecular target: T39, CHEK2 (Homo sapiens, UniProt O96017); assay: KINOMEscan; assay type: binding; details: read-out: Percent Control
T39 construct: purchased Eurofins DiscoverX KINOMEscan (scanMAX 468)

T16 sequence (P50750 whole entry): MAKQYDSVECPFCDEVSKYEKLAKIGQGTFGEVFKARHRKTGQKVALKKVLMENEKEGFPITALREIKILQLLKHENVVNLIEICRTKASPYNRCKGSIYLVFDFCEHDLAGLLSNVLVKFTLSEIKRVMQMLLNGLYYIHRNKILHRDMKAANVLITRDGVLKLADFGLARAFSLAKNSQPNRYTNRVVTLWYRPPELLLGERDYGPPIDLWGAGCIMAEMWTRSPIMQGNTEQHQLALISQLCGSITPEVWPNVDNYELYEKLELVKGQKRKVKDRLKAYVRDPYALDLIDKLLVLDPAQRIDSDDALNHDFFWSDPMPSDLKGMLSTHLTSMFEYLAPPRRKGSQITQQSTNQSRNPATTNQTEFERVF
T16 sequence (O60563 whole entry partner): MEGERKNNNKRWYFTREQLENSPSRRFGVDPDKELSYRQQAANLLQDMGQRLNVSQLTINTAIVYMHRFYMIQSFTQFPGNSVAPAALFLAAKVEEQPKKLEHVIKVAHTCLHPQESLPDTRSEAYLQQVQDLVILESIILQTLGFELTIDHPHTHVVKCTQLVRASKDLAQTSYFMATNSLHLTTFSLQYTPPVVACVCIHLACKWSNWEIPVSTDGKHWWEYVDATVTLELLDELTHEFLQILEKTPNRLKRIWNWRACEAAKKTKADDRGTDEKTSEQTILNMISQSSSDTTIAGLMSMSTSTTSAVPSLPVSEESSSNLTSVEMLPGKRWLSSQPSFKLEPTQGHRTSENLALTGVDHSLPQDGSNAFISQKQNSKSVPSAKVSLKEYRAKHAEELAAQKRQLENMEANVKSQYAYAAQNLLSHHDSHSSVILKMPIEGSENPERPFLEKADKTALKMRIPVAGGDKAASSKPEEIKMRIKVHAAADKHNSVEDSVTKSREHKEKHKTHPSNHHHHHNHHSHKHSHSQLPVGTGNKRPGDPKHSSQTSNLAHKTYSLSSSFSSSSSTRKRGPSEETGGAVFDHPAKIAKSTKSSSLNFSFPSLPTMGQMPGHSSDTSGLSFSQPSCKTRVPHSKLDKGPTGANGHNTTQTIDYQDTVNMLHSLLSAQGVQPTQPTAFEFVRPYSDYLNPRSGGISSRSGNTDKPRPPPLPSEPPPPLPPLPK
T26 sequence (P09619 33-1106): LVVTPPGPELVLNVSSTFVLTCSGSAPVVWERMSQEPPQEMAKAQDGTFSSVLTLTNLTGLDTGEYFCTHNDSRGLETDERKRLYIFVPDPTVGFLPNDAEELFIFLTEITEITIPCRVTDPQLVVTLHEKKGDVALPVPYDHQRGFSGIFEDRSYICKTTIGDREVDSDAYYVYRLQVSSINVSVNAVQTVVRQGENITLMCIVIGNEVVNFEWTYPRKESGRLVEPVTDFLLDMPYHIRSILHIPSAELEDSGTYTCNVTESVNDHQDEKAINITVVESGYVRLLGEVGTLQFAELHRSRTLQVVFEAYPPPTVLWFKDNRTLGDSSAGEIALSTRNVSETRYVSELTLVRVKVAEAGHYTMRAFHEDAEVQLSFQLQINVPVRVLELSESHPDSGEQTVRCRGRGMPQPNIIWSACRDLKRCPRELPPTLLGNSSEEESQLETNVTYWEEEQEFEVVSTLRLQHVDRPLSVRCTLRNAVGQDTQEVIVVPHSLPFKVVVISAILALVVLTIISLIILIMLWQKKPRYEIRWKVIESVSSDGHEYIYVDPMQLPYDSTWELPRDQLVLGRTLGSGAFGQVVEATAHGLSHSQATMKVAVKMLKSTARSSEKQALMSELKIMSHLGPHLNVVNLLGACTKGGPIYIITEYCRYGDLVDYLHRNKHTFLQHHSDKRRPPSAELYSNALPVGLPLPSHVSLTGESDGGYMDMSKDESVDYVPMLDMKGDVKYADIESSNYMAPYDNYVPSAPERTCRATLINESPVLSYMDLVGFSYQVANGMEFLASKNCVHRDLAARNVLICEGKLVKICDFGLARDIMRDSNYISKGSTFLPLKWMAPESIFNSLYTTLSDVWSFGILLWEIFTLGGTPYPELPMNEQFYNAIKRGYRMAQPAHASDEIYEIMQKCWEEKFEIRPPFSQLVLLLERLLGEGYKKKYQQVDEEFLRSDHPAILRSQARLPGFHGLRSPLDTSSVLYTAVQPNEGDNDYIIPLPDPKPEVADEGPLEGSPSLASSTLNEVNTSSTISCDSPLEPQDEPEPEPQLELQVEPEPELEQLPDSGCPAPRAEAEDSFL
T35 sequence (P51451 whole entry): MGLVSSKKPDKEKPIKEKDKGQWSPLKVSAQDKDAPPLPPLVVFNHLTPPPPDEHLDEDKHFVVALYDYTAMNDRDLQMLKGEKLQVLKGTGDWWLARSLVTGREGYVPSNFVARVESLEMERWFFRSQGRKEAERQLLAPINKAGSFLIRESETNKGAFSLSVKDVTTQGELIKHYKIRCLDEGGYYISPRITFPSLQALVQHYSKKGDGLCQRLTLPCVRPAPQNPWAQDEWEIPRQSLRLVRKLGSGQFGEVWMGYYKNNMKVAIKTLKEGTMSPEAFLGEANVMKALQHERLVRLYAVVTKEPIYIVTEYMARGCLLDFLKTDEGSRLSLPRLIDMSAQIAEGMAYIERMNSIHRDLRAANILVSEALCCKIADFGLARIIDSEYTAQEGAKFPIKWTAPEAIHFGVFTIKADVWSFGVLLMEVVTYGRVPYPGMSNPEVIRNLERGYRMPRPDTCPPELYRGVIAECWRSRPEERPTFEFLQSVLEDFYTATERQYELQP
T29 sequence (Q9BWU1 whole entry): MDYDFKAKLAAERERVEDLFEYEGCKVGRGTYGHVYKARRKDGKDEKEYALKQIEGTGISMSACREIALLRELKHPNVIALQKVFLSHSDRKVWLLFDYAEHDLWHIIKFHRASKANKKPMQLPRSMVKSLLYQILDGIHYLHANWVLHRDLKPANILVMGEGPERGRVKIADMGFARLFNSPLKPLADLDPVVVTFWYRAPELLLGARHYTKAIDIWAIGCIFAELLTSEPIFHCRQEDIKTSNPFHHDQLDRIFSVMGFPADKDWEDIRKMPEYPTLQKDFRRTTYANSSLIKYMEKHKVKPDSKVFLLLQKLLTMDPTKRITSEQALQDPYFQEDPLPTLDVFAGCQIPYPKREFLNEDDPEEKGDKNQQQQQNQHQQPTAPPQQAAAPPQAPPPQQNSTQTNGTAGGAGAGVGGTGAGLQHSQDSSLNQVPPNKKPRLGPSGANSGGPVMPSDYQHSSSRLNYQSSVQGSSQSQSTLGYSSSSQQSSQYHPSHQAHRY
T7 sequence (P04629 33-796): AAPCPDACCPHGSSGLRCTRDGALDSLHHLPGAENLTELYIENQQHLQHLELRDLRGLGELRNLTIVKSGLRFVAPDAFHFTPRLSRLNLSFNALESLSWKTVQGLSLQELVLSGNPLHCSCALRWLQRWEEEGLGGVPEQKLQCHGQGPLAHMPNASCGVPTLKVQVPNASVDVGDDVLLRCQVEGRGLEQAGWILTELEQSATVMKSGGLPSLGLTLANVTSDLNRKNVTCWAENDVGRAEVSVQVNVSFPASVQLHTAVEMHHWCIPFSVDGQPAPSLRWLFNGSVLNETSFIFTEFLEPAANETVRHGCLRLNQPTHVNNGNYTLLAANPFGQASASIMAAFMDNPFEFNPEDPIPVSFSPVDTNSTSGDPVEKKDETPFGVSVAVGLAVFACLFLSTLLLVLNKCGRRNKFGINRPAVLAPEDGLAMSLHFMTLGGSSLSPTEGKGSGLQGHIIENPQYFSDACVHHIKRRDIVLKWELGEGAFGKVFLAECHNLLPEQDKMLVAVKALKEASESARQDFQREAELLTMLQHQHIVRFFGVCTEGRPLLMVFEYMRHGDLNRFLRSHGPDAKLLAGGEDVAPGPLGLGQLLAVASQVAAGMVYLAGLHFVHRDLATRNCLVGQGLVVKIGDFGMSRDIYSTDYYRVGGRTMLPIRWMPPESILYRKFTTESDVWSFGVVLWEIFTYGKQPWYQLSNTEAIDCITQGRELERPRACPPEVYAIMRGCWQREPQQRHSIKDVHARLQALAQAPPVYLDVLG
T4 sequence (Q07002 whole entry): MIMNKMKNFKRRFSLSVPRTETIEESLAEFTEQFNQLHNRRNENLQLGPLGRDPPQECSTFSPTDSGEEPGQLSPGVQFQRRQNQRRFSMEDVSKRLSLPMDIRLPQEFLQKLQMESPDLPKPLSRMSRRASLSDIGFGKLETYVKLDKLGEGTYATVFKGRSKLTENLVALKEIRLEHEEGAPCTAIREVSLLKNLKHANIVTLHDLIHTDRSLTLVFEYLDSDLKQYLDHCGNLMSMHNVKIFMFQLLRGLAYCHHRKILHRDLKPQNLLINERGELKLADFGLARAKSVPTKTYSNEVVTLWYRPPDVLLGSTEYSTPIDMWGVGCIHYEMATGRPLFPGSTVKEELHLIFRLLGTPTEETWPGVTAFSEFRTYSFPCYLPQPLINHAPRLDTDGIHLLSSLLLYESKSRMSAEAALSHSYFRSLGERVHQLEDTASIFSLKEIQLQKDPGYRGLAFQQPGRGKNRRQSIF
T18 sequence (O00238 14-502): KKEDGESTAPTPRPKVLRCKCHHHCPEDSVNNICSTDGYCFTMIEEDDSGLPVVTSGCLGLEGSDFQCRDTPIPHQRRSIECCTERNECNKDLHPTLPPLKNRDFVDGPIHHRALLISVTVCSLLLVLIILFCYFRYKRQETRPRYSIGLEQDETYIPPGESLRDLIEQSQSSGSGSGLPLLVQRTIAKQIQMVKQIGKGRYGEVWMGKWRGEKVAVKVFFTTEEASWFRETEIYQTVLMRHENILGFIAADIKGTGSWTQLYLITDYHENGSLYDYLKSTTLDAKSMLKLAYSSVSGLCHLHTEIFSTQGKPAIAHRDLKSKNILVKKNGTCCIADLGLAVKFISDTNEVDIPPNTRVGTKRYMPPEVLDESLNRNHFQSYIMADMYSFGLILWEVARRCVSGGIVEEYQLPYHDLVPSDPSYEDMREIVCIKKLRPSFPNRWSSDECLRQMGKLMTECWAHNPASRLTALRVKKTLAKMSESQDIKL

## Cc1ccc(-n2cc(COc3cccc4cnc(Nc5cccc(Cl)c5)nc34)nn2)c([N+](=O)[O-])c1 [DB18]
ALK(C1156Y)
  remaining binding at 1 µM: 99%
BRK
  remaining binding at 1 µM: 100%
CSF1R-autoinhibited
  remaining binding at 1 µM: 71%
PCTK3
  remaining binding at 1 µM: 100%
MLK1
  remaining binding at 1 µM: 100%
PKAC-beta
  remaining binding at 1 µM: 100%
TRKA
  remaining binding at 1 µM: 8.9%
KIT(V559D,V654A)
  remaining binding at 1 µM: 100%
FLT3(N841I)
  remaining binding at 1 µM: 77%
FLT4
  remaining binding at 1 µM: 100%
TESK1
  remaining binding at 1 µM: 95%
Human skin fibroblasts
  IC50: 21 µM
[1]
  remaining binding at 1 µM: 100%
EIF2AK1
  remaining binding at 1 µM: 100%
TGFBR1
  remaining binding at 1 µM: 100%
FGFR3(G697C)
  remaining binding at 1 µM: 97%
Hs_CDK9/CyclinT; 1 µM
  % of residual activity Hs_CDK9/CyclinT: 90%
Hs_CDK9/CyclinT; 10 µM
  % of residual activity Hs_CDK9/CyclinT: 54%
WNK1
  remaining binding at 1 µM: 100%
BMPR1B
  remaining binding at 1 µM: 96%
VRK2
  remaining binding at 1 µM: 100%
[2]
  remaining binding at 1 µM: 96%
TGFBR2
  remaining binding at 1 µM: 100%
AKT3
  remaining binding at 1 µM: 100%
ERK2
  remaining binding at 1 µM: 100%
ACVR1B
  remaining binding at 1 µM: 88%
TRPM6
  remaining binding at 1 µM: 91%
PDGFRB
  remaining binding at 1 µM: 100%
LYN
  remaining binding at 1 µM: 93%
NEK5
  remaining binding at 1 µM: 100%
CDK11
  remaining binding at 1 µM: 100%
CSK
  remaining binding at 1 µM: 100%
MUSK
  remaining binding at 1 µM: 100%
SYK
  remaining binding at 1 µM: 97%
PIP5K2B
  remaining binding at 1 µM: 100%
INSRR
  remaining binding at 1 µM: 100%
BLK
  remaining binding at 1 µM: 100%
PIK4CB
  remaining binding at 1 µM: 94%
MET
  remaining binding at 1 µM: 95%
EGFR(L858R,T790M)
  remaining binding at 1 µM: 100%
CHEK2
  remaining binding at 1 µM: 100%
